In patent publication US9493468B2, “Antifungal 5,6-dihydro-4H-pyrrolo[1,2-a][1,4]benzo-diazepines and 6H-pyrrolo[1,2-a][1,4]benzodiazepines substituted with heterocyclic derivatives” (Janssen Pharmaceutica NV, priority 2011, dated 2016):

Legend:
[1] = test system: Microsporum canis; experiment: Antifungal activity in vitro, resazurin growth inhibition: Microsporum canis (B68128); format: cell-based; conditions: for IC50: read-out: Inf. B: Microsporum canis B68128, pIC50 (converted)
Procedure, shortened: (§1)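 Resazurin conversion to fluorescent resorufin (ex 550/em 590 nm) served as the growth readout. Compounds spanned 2- or 4-fold serial dilutions with 64 μM top in-test concentration; inoculum 10^3 cfu per well in MOPS-buffered RPMI-1640 (pH 7.0, 2% glucose). Incubation species-dependent, dermatophytes at 27° C. for ≥1 week.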

[2] = test system: Trichophyton mentagrophytes; experiment: Antifungal activity in vitro, resazurin growth inhibition: Trichophyton mentagrophytes (B70554); format: cell-based; conditions: for IC50: read-out: Inf. G: Trichophyton mentagrophytes B70554, pIC50 (converted)
Procedure, shortened: as §1

[3] = test system: Trichophyton rubrum; experiment: Antifungal activity in vitro, resazurin growth inhibition: Trichophyton rubrum (B68183); format: cell-based; conditions: for IC50: read-out: Inf. C: Trichophyton rubrum B68183, pIC50 (converted)
Procedure, shortened: as §1

[4] = test system: Scedosporium apiospermum; experiment: Antifungal activity in vitro, resazurin growth inhibition: Scedosporium apiospermum (IHEM3817); format: cell-based; conditions: for IC50: read-out: Inf. H: Scedosporium apiospermum IHEM3817, pIC50 (converted)
Procedure, shortened: (§2)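 Compound dilutions, with 64 μM as the highest in-test level, are spotted onto plates, then an inoculum of 10^3 cfu in RPMI-1640 plus 2% glucose (MOPS, pH 7.0±0.1) is added. Plates are incubated at species-dependent time and temperature, up to a week or more at 27° C. for dermatophytes.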

[5] = test system: Scedosporium prolificans; experiment: Antifungal activity in vitro, resazurin growth inhibition: Scedosporium prolificans (IHEM21157); format: cell-based; conditions: for IC50: Lomentospora prolificans, read-out: Inf. I: Scedosporium prolificans IHEM21157, pIC50 (converted)
Procedure, shortened: as §2

[6] = test system: Sporothrix schenkii; experiment: Antifungal activity in vitro, resazurin growth inhibition: Sporothrix schenkii (B62482); format: cell-based; conditions: for IC50: read-out: Inf. A: Sporothrix schenkii B62482, pIC50 (converted)
Procedure, shortened: as §2

[7] = test system: Aspergillus fumigatus; experiment: Antifungal activity in vitro, resazurin growth inhibition: Aspergillus fumigatus (B42928); format: cell-based; conditions: for IC50: read-out: Inf. E: Aspergillus fumigatus B42928, pIC50 (converted)
Procedure, shortened: as §2

[8] = test system: Candida parapsilosis; experiment: Antifungal activity in vitro, resazurin growth inhibition: Candida parapsilosis (B66126); format: cell-based; conditions: for IC50: Lodderomyces parapsilosis, read-out: Inf. D: Candida parapsilosis B66126, pIC50 (converted)
Procedure, shortened: as §2

[9] = test system: Cryptococcus neoformans; experiment: Antifungal activity in vitro, resazurin growth inhibition: Cryptococcus neoformans (B66663); format: cell-based; conditions: for IC50: read-out: Inf. F: Cryptococcus neoformans B66663, pIC50 (converted)
Procedure, shortened: as §2

[10] = test system: Rhizopus oryzae; experiment: Antifungal activity in vitro, resazurin growth inhibition: Rhizopus oryzae (IHEM5223); format: cell-based; conditions: for IC50: Rhizopus arrhizus, read-out: Inf. J: Rhizopus oryzae IHEM5223, pIC50 (converted)
Procedure, shortened: as §2

[11] = test system: Rhizomucor miehei; experiment: Antifungal activity in vitro, resazurin growth inhibition: Rhizomucor miehei (IHEM13391); format: cell-based; conditions: for IC50: read-out: Inf. K: Rhizomucor miehei IHEM13391, pIC50 (converted)
Procedure, shortened: as §2

Structure (SMILES) | IC50 [1] | IC50 [2] | IC50 [3] | IC50 [4] | IC50 [5] | IC50 [6] | IC50 [7] | IC50 [8] | IC50 [9] | IC50 [10] | IC50 [11] | melting point | Inf. B: Microsporum canis B68128, pIC50 [1] | Inf. G: Trichophyton mentagrophytes B70554, pIC50 [2] | Inf. C: Trichophyton rubrum B68183, pIC50 [3] | Inf. H: Scedosporium apiospermum IHEM3817, pIC50 [4] | Inf. I: Scedosporium prolificans IHEM21157, pIC50 [5] | Inf. A: Sporothrix schenkii B62482, pIC50 [6] | Inf. E: Aspergillus fumigatus B42928, pIC50 [7] | Inf. D: Candida parapsilosis B66126, pIC50 [8] | further results
Cc1cccc2c1CNC(c1cc3ccccc3s1)c1cccn1-2.Cl (stereo not drawn) [Compound 1] | 0.447 µM | 0.204 µM | 0.0676 µM | > 64.6 µM | 1.82 µM | 3.02 µM | 2 µM | 45.7 µM | > 64.6 µM | > 64.6 µM | > 64.6 µM | 242.4 to 247.7 °C | – | – | – | – | – | – | – | – | –
FC(F)(F)c1cc(C2=NCc3c(Cl)cccc3-n3cccc32)ccn1 [Compound 3] | 0.126 µM | 0.229 µM | 0.0427 µM | 2.14 µM | 3.02 µM | > 64.6 µM | 1.35 µM | > 64.6 µM | > 64.6 µM | > 64.6 µM | > 64.6 µM | 158.2 to 160.6 °C | – | – | – | – | – | – | – | – | –
Clc1cccc2c1-n1cccc1C(c1cc3ccccc3o1)=NC2 [Compound 5] | 0.316 µM | 0.107 µM | 0.0692 µM | 6.03 µM | 0.309 µM | 0.661 µM | 2.69 µM | > 64.6 µM | 3.55 µM | > 64.6 µM | 7.94 µM | 159.9 to 160.8 °C | – | – | – | – | – | – | – | – | –
Cc1cccc2cc(C3=NCc4c(Cl)cccc4-n4cccc43)oc12 [Compound 7] | 0.174 µM | 0.245 µM | 0.0646 µM | 0.513 µM | 0.214 µM | 2.75 µM | 0.302 µM | 9.77 µM | 0.759 µM | > 64.6 µM | 7.08 µM | 175.2 to 177.3 °C | – | – | – | – | – | – | – | – | –
Clc1cccc2c1CN=C(c1ccc3occc3c1)c1cccn1-2 [Compound 8] | 0.427 µM | 0.178 µM | 0.0389 µM | 10.2 µM | 0.437 µM | 14.1 µM | 0.49 µM | 0.794 µM | 4.27 µM | > 15.8 µM | 44.7 µM | 163.9 to 164.1 °C | – | – | – | – | – | – | – | – | –
Clc1cccc2c1-n1cccc1C(c1ccc3sccc3c1)=NC2 [Compound 174] | – | – | – | – | – | – | – | – | – | – | – | – | 6.54 | 6.80 | 6.87 | <4.19 | 4.80 | 6.06 | 6.30 | <4.19 | Inf. F: Cryptococcus neoformans B66663, pIC50 [9]: 6.43; Inf. J: Rhizopus oryzae IHEM5223, pIC50 [10]: <4.19; Inf. K: Rhizomucor miehei IHEM13391, pIC50 [11]: <4.19
Fc1cccc2c1CN=C(c1ccc3sccc3c1)c1cccn1-2 [Compound 175] | – | – | – | – | – | – | – | – | – | – | – | – | 6.90 | 7.11 | 7.36 | 5.08 | 5.56 | 5.70 | 6.85 | 6.17 | Inf. F: Cryptococcus neoformans B66663, pIC50 [9]: 6.41; Inf. J: Rhizopus oryzae IHEM5223, pIC50 [10]: 5.07; Inf. K: Rhizomucor miehei IHEM13391, pIC50 [11]: 5.14
Fc1cc(F)c2c(c1)-n1cccc1C(c1ccc3sccc3c1)=NC2 [Compound 176] | – | – | – | – | – | – | – | – | – | – | – | – | 6.89 | 6.57 | 6.90 | 5.54 | 6.15 | 5.70 | 6.49 | 6.03 | Inf. F: Cryptococcus neoformans B66663, pIC50 [9]: 6.49; Inf. J: Rhizopus oryzae IHEM5223, pIC50 [10]: <4.19; Inf. K: Rhizomucor miehei IHEM13391, pIC50 [11]: <4.19
